According to US20190117624A1, “THERAPEUTIC AGENT FOR INFLAMMATORY BOWEL DISEASES” (DAIICHI SANKYO COMPANY, LIMITED, priority 2016, published 2019):

System: dextran sodium sulfate-induced ulcerative colitis in rats
Assay: Drug efficacy on dextran sodium sulfate-induced ulcerative colitis in rats (erosion area of the large intestinal mucosa)
Format: in vivo, rat
Settings: for erosion area / inhibition rate (erosion area): 14 days; for erosion area: DSS colitis rats, mean±standard error, control 330.3±15.4; for inhibition rate (erosion area): vs control group
Experimental: The test of drug efficacy of a TAFIa inhibitor on dextran sodium sulfate-induced ulcerative colitis in rats will be described below. This test was conducted by commissioning to NISSEI BILIS Co., Ltd.
A TAFIa inhibitor, (2S)-5-amino-2-{[1-(trans-4-methylcyclohexyl)-1H-imidazol-4-yl]methyl}valeric acid p-toluenesulfonate anhydride (hereinafter referred to as “compound A”) was dissolved in a 0.5% aqueous sodium carboxymethylcellulose solution (hereinafter referred to as “CMC-Na”) to prepare a dosing solution for oral administration of 0.6, 2, 6 and 20 mg/mL. The dosage was determined by conversion into a free form with a conversion factor of 0.6301. The chemical structure of compound A is as follows: […]
7-Week old male LEW/SsN Slc rats (Japan SLC, Inc.) were allowed to drink 3% dextran sodium sulfate (hereinafter referred to as “DSS”) freely to create ulcerative colitis models. Individuals meeting selection criteria for model animals shown in 1-3 below were selected followed by switching to free drinking of 1% aqueous DSS solution to maintain the ulcerative colitis models.
Thereafter, animals that met the selection criteria were selected.
The tests were conducted in two separate groups (the first half: 5 animals/group; the second half: 5 animals/group). The untreated individuals and the individuals meeting the above selection criteria were selected as adopted animals, and grouped into groups of 5 animals/group with the body weight as a main parameter and the hemoglobin concentration as a secondary parameter, according to stratified randomized assignment so as not to cause a difference in the average value among the groups (the total of two tests: 10 animals/group).
Administration route: Oral administration
Administration volume: 5 mL/kg
[…] Administration was conducted by masking the test groups (that is, individual identification numbers were recorded in the animal cards, and administration was conducted in a blinded manner). Note that the administration on the selection day (the first day of administration) was conducted only once in the afternoon.
Each of animals was fasted from the end of the final administration. On the day of dissection, approximately 3 mL of blood was collected from the abdominal aorta under anesthesia with pentobarbital sodium (30 mg/kg, i.p.) by using a polypropylene disposable syringe and an injection needle. Immediately after blood collection, the large intestine (the colon and the rectum) was isolated and immersed in physiological saline kept warm at approximately 37° C., and the length of the large intestine was measured in a relaxed state. Thereafter, a 10% neutral buffered formalin solution was infused into the large intestine, and the large intestine was immersed in physiological saline with the lumen expanded and temporarily fixed for 1 hour or more. After temporary fixation, the large intestine was dissected along the mesentery attachment site, immersed in a stretched state in a 10% neutral buffered formalin solution, and fixed for 1 week or more. The fixed large intestine specimen was washed with running water for approximately 5 minutes, further with distilled water three times, and then immersed in a 3% aqueous acetic acid solution for approximately 5 minutes as a pretreatment.
The large intestine specimen stained with a 1% Alcian blue solution was photographed. The photograph was captured on an image analysis device (general-purpose image processor WinROOF, Version 5.7, MITANI CORPORATION), and the area of deep blue part was measured. This measurement value was used as the erosion area.
The erosion area was expressed as mean±standard error. A significant difference test between the control group and each group was conducted by a homoscedasticity test (F-test) followed by Student's t test in the case of homoscedasticity and by Aspin-Welch's t test in the case of heteroscedasticity (significance level: 5%).

Compound	erosion area (300 mg/kg orally once a day)	inhibition rate (erosion area) (300 mg/kg orally once a day)	erosion area compared to the control group (significance) (300 mg/kg orally once a day, Student's t test P<0.05)	erosion area compared to the control group (significance) (3 mg/kg orally twice a day)	erosion area (3 mg/kg orally twice a day)	inhibition rate (erosion area) (3 mg/kg orally twice a day)	erosion area (10 mg/kg orally twice a day)	inhibition rate (erosion area) (10 mg/kg orally twice a day)	erosion area compared to the control group (significance) (10 mg/kg orally twice a day, Student's t test P<0.05)	erosion area (30 mg/kg orally once a day)	inhibition rate (erosion area) (30 mg/kg orally once a day)	erosion area compared to the control group (significance) (30 mg/kg orally once a day, Student's t test P<0.01)	erosion area (30 mg/kg orally twice a day)	inhibition rate (erosion area) (30 mg/kg orally twice a day)	erosion area compared to the control group (significance) (30 mg/kg orally twice a day, Student's t test P<0.01)	erosion area (100 mg/kg orally twice a day)	inhibition rate (erosion area) (100 mg/kg orally twice a day)	erosion area compared to the control group (significance) (100 mg/kg orally twice a day, Student's t test P<0.01)	reduction effect of the erosion area (overall conclusion) (rat ulcerative colitis model)
O=C(O)c1cc(/N=N/c2ccc(S(=O)(=O)Nc3ccccn3)cc2)ccc1O [SASP, Salazosulfapyridine, reference compound]	261.6±22.7 mm^2	20.8%	significant reduction in the erosion area																
C[C@H]1CC[C@H](n2cnc(C[C@H](CCCN)C(=O)O)c2)CC1.Cc1ccc(S(=O)(=O)O)cc1 [compound A, (2S)-5-amino-2-{[1-(trans-4-methylcyclohexyl)-1H-imidazol-4-yl]methyl}valeric acid p-toluenesulfonate anhydride]				No significant difference	291.8±13.1 mm^2	11.7%	281.6±11.1 mm^2	14.7%	significant reduction in the erosion area	264.0±7.9 mm^2	20.1%	significant reduction in the erosion area	262.89±13.9 mm^2	20.4%	significant reduction in the erosion area	261.9±12.7 mm^2	20.7%	significant reduction in the erosion area	significant reduction effect of the erosion area
